In publication PMC8777613, “Effect of Hydroxyl Groups Esterification with Fatty Acids on the Cytotoxicity and Antioxidant Activity of Flavones” (Molecules, 2022):

Columns and labels:
[1] = test system: human prostate cancer cells (PC3); experiment: MTT dye reduction viability test, PC3; format: cell-based; conditions: for IC50 / viability at 10 µM / viability at 20 µM / viability at 40 µM / viability at 60 µM / viability at 80 µM / viability at 100 µM: Homo sapiens; for IC50: 72 h exposure, MTT, mean ± SD, read-out: Cytotoxic activity IC50, PC3; for viability at 10 µM: PC3, 10 µM; for viability at 10 µM / viability at 20 µM / viability at 40 µM / viability at 60 µM / viability at 80 µM / viability at 100 µM: representative MTT result (Table S1 A); for viability at 20 µM: PC3, 20 µM; for viability at 40 µM: PC3, 40 µM; for viability at 60 µM: PC3, 60 µM; for viability at 80 µM: PC3, 80 µM; for viability at 100 µM: PC3, 100 µM, read-out: Cells viability
Description: (§1) We have chosen two types of cell culture lines: human prostate cancer cells (PC3) and normal human immortal keratinocyte cells (HaCaT) (Table 1).
(§2) Human prostate cancer cells (PC3) and human immortal keratinocyte cell line from adult human skin (HaCaT) were obtained from American Type Culture Collection (Teddington, UK) and cultured according to its instructions RPMI 1640 (L0490) medium or DMEM (L0102) medium, respectively, in a 95% air and 5% CO2 humidified incubator at 37 °C. Both media (Biowest) were supplemented with 10% fetal bovine serum (FBS), 100 U/mL penicillin and 100 μg/mL streptomycin. 10 mM stock solutions of tested compounds in DMSO were prepared.
(§3) To assess the cells growth inhibition, the MTT dye reduction test was preformed based on the method described by Präbst et al.. Both PC3 and HaCaT cells (1 × 10^3/well) were seeded into 96-well plates and incubated for 24 h to attach to the bottom of the well in appropriate medium (200 μL) and treated with tested compounds (0–100 μM). The medium with compounds was removed after 72 h and MTT (0.5 mg/mL) in fresh growth medium without serum was added to each well. The plates were incubated in dark for 4 h at 37 °C. Then, the solution in each well was removed and refilled with 100 μL DMSO: isopropanol (1:1) to dissolve formazon crystals. The optical density was measured with an UVM 340 (ASYS Hitech GmbH, Austria) microplate reader at 570 nm. Replicates of three wells for each dosage, including vehicle control, were analyzed for each experiment. The experiments were conducted in triplicate. The results are expressed as IC50 values. The value of IC50 was estimated using CompuSyn version 1.0.

[2] = MTT dye reduction viability test, HaCaT; format: cell-based, human; conditions: human; for IC50 at 72 h / viability at 72 h, 10 µM / viability at 72 h, 20 µM / viability at 72 h, 40 µM / viability at 72 h, 60 µM / viability at 72 h, 80 µM / viability at 72 h, 100 µM: HaCaT cells (immortal keratinocytes)
Description: as §1, §2, §3

[3] = test system: human immortal keratinocyte cells (HaCaT); experiment: MTT dye reduction viability test, HaCaT; format: cell-based; conditions: for IC50: 72 h exposure, MTT, mean ± SD, read-out: Cytotoxic activity IC50, HaCaT
Description: as §1, §2, §3

rat brain homogenate = experiment: Lipid peroxidation (MDA/TBA) induced by FeCl2 and ascorbic acid; format: biochemical; conditions: 10 µM compound; for MDA concentration: oxidation by 0.1% FeCl2 and 1 mM ascorbic acid, 1 h 37 °C, control 9.644 ± 1.570
Description: The antioxidant potential of the new flavone derivatives was assessed based on the analysis of malondialdehyde concentration formed as a product of lipid oxidation stimulated by iron (II) ions.
After preparation, the brain was placed on an ice plate and washed with cold 0.9% NaCl. 10% (m/v) brain solution was obtained by homogenization in cold 10 mM TRIS-HCl buffer, pH = 7.5. The homogenate was centrifuged (2000 rpm, 10 min, 4 °C) to obtain supernatant 1 (S1).
100 µM stock solutions of test compounds in DMSO were prepared. The test compound solution was added to a […] S1 homogenate to a final concentration of 10 µM.
The oxidation reaction was induced by adding to the samples with or without the test compounds freshly prepared solutions: 0.1% FeCl2 (0.2 mL) and 1 mM ascorbic acid (0.4 mL). After incubation for 1 h at 37 °C, the reaction was stopped by adding 8.1% sodium dodecyl sulfate (SDS) solution. In order to determine the concentration of MDA, the acetic acid/HCl buffer at pH = 3.4 and 120 μL of 0.8% thiobarbituric acid (TBA) solution at pH = 6 were added to the samples. The samples were incubated for 1 h at 100 °C. After incubation, the samples were cooled on ice and centrifuged for 10 min at 4000 RPM. The absorbance was measured at a wavelength of 532 nm. Blank content: 0.5 mL of acetate buffer + 0.5 mL of TBA solution.
Calculation of malondialdehyde (MDA) concentration (Equation (1)):(1) MDA concentration=∆ A532 nm × 1.56 ×10^−6 [nmol MDA/h/g tissue]

[4] = 72 h exposure, MTT, mean ± SD, read-out: Cytotoxic activity IC50, HaCaT
[5] = HaCaT, 10 µM, 72 h, representative MTT result (Table S1 B)
[6] = HaCaT, 20 µM, 72 h, representative MTT result (Table S1 B)
[7] = HaCaT, 40 µM, 72 h, representative MTT result (Table S1 B)
[8] = HaCaT, 60 µM, 72 h, representative MTT result (Table S1 B)
[9] = HaCaT, 80 µM, 72 h, representative MTT result (Table S1 B)
[10] = HaCaT, 100 µM, 72 h, representative MTT result (Table S1 B), read-out: Cells viability

Row | SMILES | IC50 [1] [µM] | viability at 10 µM ([1]; 72 h) [%] | viability at 20 µM ([1]; 72 h) [%] | viability at 40 µM ([1]; 72 h) [%] | viability at 60 µM ([1]; 72 h) [%] | viability at 80 µM ([1]; 72 h) [%] | viability at 100 µM ([1]; 72 h) [%] | IC50 at 72 h [2, 4] [µM] | viability at 72 h, 10 µM [2, 5] [%] | viability at 72 h, 20 µM [2, 6] [%] | viability at 72 h, 40 µM [2, 7] [%] | viability at 72 h, 60 µM [2, 8] [%] | viability at 72 h, 80 µM [2, 9] [%] | viability at 72 h, 100 µM [2, 10] [%] | IC50 [3] [µM] | MDA concentration (rat brain homogenate) [mM × 10^−3] | melting point [°C] | other results
1 | CCC=CCC=CCC=CCCCCCCCC(=O)Oc1ccc2c(c1)C(=O)CC(c1ccccc1)O2 (stereo not drawn) [6-Linolenic-Flavanone, 6-hydroxy-flavanone linolenic ester] | 51.4 ± 2.8 | 92.5 | 85.9 | 79.5 | 48 | 35.8 | 31.5 | 80 ± 4.75 | 95.8 | 75.2 | 53.3 | 38.1 | 25.8 | 23.8 | 44.6 ± 5.89 | – | – | –
2 | CCCCCCCCC=CCCCCCCCC(=O)Oc1ccc2c(c1)C(=O)CC(c1ccccc1)O2 (stereo not drawn) [6-Oleic-Flavanone, 6-hydroxy-flavanone oleic ester] | 38.1 ± 3.24 | 100 | 70.9 | 41.4 | 19.3 | 13.3 | 6.81 | 53.3 ± 6.87 | 97.8 | 70 | 75.7 | 26.4 | 26.5 | 26.5 | 53.3 ± 6.87 | 8.326 ± 0.490 | 46.2 to 47.1 | –
3 | CCCCCCCCCCCCCCCCCC(=O)Oc1ccc2c(c1)C(=O)CC(c1ccccc1)O2 (stereo not drawn) [6-Stearic-Flavanone, 6-hydroxy-flavanone stearic ester] | > 100 | 96.5 | 106 | 99.6 | 93.9 | 93.6 | 93.7 | 40.6 ± 4.21 | 95.4 | 82.5 | 54.7 | 47.8 | 32.5 | 11.7 | 40.6 ± 4.21 | 7.875 ± 0.343 | – | cytotoxic potential in PC3 cells (in words) ([1]; PC3, 0–100 μM, 72 h): no cytotoxic potential
4 | O=c1cc(-c2ccccc2)oc2cc(O)ccc12 [7-Hydroxy-Flavone, 7-hydroxy-flavone, reference compound] | > 100 | 123 | 117 | 111 | 95.4 | 65 | 62.7 | – | – | – | – | – | – | – | – | 7.702 ± 1.080 | – | reduction of PC3 cells viability compared to control cells ([1]; PC3, 72 h, concentration not given): 38%; IC50 [2, 4]: > 100 µM; viability at 10 µM ([2]; HaCaT, 10 µM, 72 h, representative MTT result (Table S1 B), read-out: Cells viability): 93.8%; viability at 20 µM ([2]; HaCaT, 20 µM, 72 h, representative MTT result (Table S1 B), read-out: Cells viability): 65.8%; viability at 40 µM ([2]; HaCaT, 40 µM, 72 h, representative MTT result (Table S1 B), read-out: Cells viability): 69.7%; viability at 60 µM ([2]; HaCaT, 60 µM, 72 h, representative MTT result (Table S1 B), read-out: Cells viability): 96.2%; viability at 80 µM ([2]; HaCaT, 80 µM, 72 h, representative MTT result (Table S1 B), read-out: Cells viability): 97.2%; viability at 100 µM [2, 10]: 92.4%; cytotoxic activity towards HaCaT cells (in words) ([3]; HaCaT, 0–100 μM, 72 h): did not exhibit cytotoxic activity; reduction of the level of MDA compared to the control sample (rat brain homogenate; rat brain homogenate): 20.14%
5 | CC=CC=CC(=O)Oc1ccc2c(=O)cc(-c3ccccc3)oc2c1 [7-Sorbic-Flavone, 7-hydroxy-flavone sorbic ester] | 94.3 ± 4.24 | 84 | 80.9 | 93.6 | 74.5 | 69.6 | 75.2 | 50.8 ± 2.48 | 97.5 | 87.2 | 80.1 | 41 | 57.4 | 43.7 | – | 8.361 ± 0.050 | 137.8 to 139.7 | –
6 | CCCCCCCCCCCCCCCCCC(=O)Oc1ccc2c(=O)cc(-c3ccccc3)oc2c1 [7-Stearic-Flavone, 7-hydroxy-flavone stearic ester] | 33.2 ± 4.81 | 100 | 87.7 | 41.8 | 32.2 | 47.9 | 27.5 | 45.6 ± 7.2 | 95.8 | 65.3 | 59.1 | 39.8 | 35.7 | 20.7 | – | 8.151 ± 0.343 | 84.5 to 85.7 | –
